Experimental data taken from patent publication US9751886B2, “4-amino-6-phenyl-6,7-dihydro[1,2,3]triazolo[1,5-A]pyrazine derivatives as inhibitors of beta-secretase (BACE)” (Janssen Pharmaceutica NV, priority 2013, dated 2017).

Legend:
[1] = molecular target: recombinant BACE1 protein (Homo sapiens (Human), UniProt P56817); experiment: BACE1 Biochemical FRET based assay - Method 2; conditions: 0.04 μg/ml BACE1, 20 μM substrate, 450 min, pH 5.0
Excerpt: (§1) This assay is a Fluorescence Resonance Energy Transfer Assay (FRET) based assay. The substrate for this assay is an APP derived 13 amino acids peptide that contains the ‘Swedish’ Lys-Met/Asn-Leu mutation of the amyloid precursor protein (APP) beta-secretase cleavage site. This substrate also contains two fluorophores: (7-methoxycoumarin-4-yl) acetic acid (Mca) is a fluorescent donor with excitation wavelength at 320 nm and emission at 405 nm and 2,4-Dinitrophenyl (Dnp) is a proprietary quencher acceptor. […] Upon cleavage by BACE1, the fluorophore Mca is separated from the quenching group Dnp, restoring the full fluorescence yield of the donor. The increase in fluorescence is linearly related to the rate of proteolysis.
Briefly in a 384-well format recombinant BACE1 protein in a final concentration of 0.04 μg/ml is incubated for 450 minutes at room temperature with 20 μM substrate in incubation buffer (50 mM Citrate buffer pH 5.0, 0.05% PEG) in the presence of compound or DMSO. Next the amount of proteolysis is directly measured by fluorescence measurement (excitation at 320 nm and emission at 405 nm) at different incubation times (0, 30, 60, 90, 120 and 450 min). For every experiment a time curve (every 30 min between 0 min and 120 min) is used to determine the time where we find the lowest basal signal of the high control. The signal at this time (Tx) is used to subtract from the signal at 450 min. Results are expressed in RFU, as difference between T450 and Tx.

[2] = test system: Abeta 1-42 secreted by human neuroblastoma SKNBE2 cells expressing wild type hAPP695; experiment: BACE1 cellular αLisa assay in SKNBE2 cells, Abeta 1-42; assay type: cell-based; conditions: 18 hours incubation; for IC50: Homo sapiens, read-out: Cellular αLisa assay in SKNBE2 cells Abeta 42 pIC50 (converted)
Procedure: (§2) In two αLisa assays the levels of Abeta total and Abeta 1-42 produced and secreted into the medium of human neuroblastoma SKNBE2 cells are quantified. The assay is based on the human neuroblastoma SKNBE2 expressing the wild type Amyloid Precursor Protein (hAPP695). The compounds are diluted and added to these cells, incubated for 18 hours and then measurements of Abeta 1-42 and Abeta total are taken. Abeta total and Abeta 1-42 are measured by sandwich αLisa. αLisa is a sandwich assay using biotinylated antibody AbN/25 attached to streptavidin coated beads and antibody Ab4G8 or cAb42/26 conjugated acceptor beads for the detection of Abeta total and Abeta 1-42 respectively. In the presence of Abeta total or Abeta 1-42, the beads come into close proximity. The excitation of the donor beads provokes the release of singlet oxygen molecules that trigger a cascade of energy transfer in the acceptor beads, resulting in light emission.

[3] = test system: Abeta total secreted by human neuroblastoma SKNBE2 cells expressing wild type hAPP695; experiment: BACE1 cellular αLisa assay in SKNBE2 cells, Abeta total; assay type: cell-based; conditions: 18 hours incubation; for IC50: Homo sapiens, read-out: Cellular αLisa assay in SKNBE2 cells Abetatotal pIC50 (converted)
Procedure: as §2

[4] = molecular target: recombinant BACE2 protein (Homo sapiens (Human), UniProt Q9Y5Z0); experiment: BACE2 Biochemical FRET based assay; conditions: 0.4 μg/ml BACE2, 10 μM substrate, 450 min, pH 5.0
Excerpt: as §1, with “assay” for “assay is an APP derived 13 amino acids peptide that”, “the beta-secretase,” for “BACE1,”
Briefly in a 384-well format recombinant BACE2 protein in a final concentration of 0.4 μg/ml is incubated for 450 minutes at room temperature with 10 μM substrate in incubation buffer (50 mM Citrate buffer pH 5.0, 0.05% PEG, no DMSO) in the absence or presence of compound. Next the amount of proteolysis is directly measured by fluorescence measurement at T=0 and T=450 (excitation at 320 nm and emission at 405 nm). Results are expressed in RFU (Relative Fluorescence Units), as difference between T450 and TO.

[5] = test system: brain levels of soluble Aβ42, Aβ40; experiment: In vivo Aβ lowering in non-transgenic rodents (MSD electrochemiluminescence); parameters: species or system mouse; conditions: untreated control = 100
Excerpt: To determine whether acute administration of an Aβ lowering agent would reduce Aβ levels in vivo, non-transgenic rodents, e.g. mice or rats were used. Animals treated with the Aβ lowering agent were examined and compared to those untreated or treated with vehicle and brain levels of soluble Aβ42, Aβ40, Aβ38, and Aβ37 were quantitated by Meso Scale Discovery's (MSD) electrochemiluminescence detection technology. Treatment periods varied from hours (h) to days and were adjusted based on the results of the Aβ lowering once a time course of onset of effect could be established.
A typical protocol for measuring Aβ lowering in vivo is shown but it is only one of many variations that could be used to optimize the levels of detectable A. For example, Aβ lowering compounds were formulated in 20% of Captisol® (a sulfo-butyl ether of β-cyclodextrin) in water or 20% hydroxypropyl β cyclodextrin. The Aβ lowering agents were administered as a single oral dose or by any acceptable route of administration to overnight fasted animals. […]
Blood was collected by decapitation and exsanguinations in EDTA-treated collection tubes. Blood was centrifuged at 1900 g for 10 minutes (min) at 4° C. and the plasma recovered and flash frozen for later analysis. The brain was removed from the cranium and hindbrain. The cerebellum was removed and the left and right hemisphere were separated. The left hemisphere was stored at −18° C. for quantitative analysis of test compound levels. The right hemisphere was rinsed with phosphate-buffered saline (PBS) buffer and immediately frozen on dry ice and stored at −80° C. until homogenization for biochemical assays.
Mouse brains from non-transgenic animals were resuspended in 8 volumes of 0.4% DEA (diethylamine)/50 mM NaCl containing protease inhibitors (Roche-11873580001 or 04693159001) per gram of tissue, e.g. for 0.158 g brain, add 1.264 ml of 0.4% DEA. All samples were homogenized in the FastPrep-24 system (MP Biomedicals) using lysing matrix D (MPBio #6913-100) at 6 m/s for 20 seconds. Homogenates were centrifuged at 20800×g for 5 min and supernatants collected. Supernatants were centrifuged at 221.300×g for 50 min. The resulting high speed supernatants were then transferred to fresh eppendorf tubes. Nine parts of supernatant were neutralized with 1 part 0.5 M Tris-HCl pH 6.8 and used to quantify Aβ.
To quantify the amount of Aβ42, Aβ40, Aβ38, and Aβ37 in the soluble fraction of the brain homogenates, simultaneous specific detection of Aβ42, Aβ40, Aβ38, and Aβ37 was performed using MSD's electro-chemiluminescence multiplex detection technology. In this assay purified monoclonal antibodies specific for Abeta37 (JRD/Aβ37/3), Abeta38 (J&JPRD/Aβ38/5), Abeta40 (JRF/cAβ40/28), and Abeta42 (JRF/cAβ(342/26) were coated on MSD 4-plex plates. Briefly, the standards (a dilution of synthetic Aβ42, Aβ40, Aβ38, and Aβ37) were prepared in 1.5 ml Eppendorf tube in Ultraculture, with final concentrations ranging from 10000 to 0.3 pg/m. The samples and standards were co-incubated with Sulfo-tag labelled JRF/rAβ/2 antibody to the N-terminus of Aβ as detector antibody. 50 μl of conjugate/sample or conjugate/standards mixtures were then added to the antibody-coated plate. The plate was allowed to incubate overnight at 4° C. in order to allow formation of the antibody-amyloid complex. Following this incubation and subsequent wash steps the assay was finished by adding read buffer according to the manufacturer's instructions (Meso Scale Discovery, Gaitherburg, Md.).
The SULFO-TAG emits light upon electrochemical stimulation initiated at the electrode. MSD Sector instrument SI6000 was used for signal read-out.
The results are shown in Table 8 (value for untreated animals as control (Ctrl) was set at 100): […]

[6] = dose 10, s.c., 2 h after administration
[7] = dose 10, s.c., 4 h after administration
[8] = dose 10, p.o., 2 h after administration
[9] = dose 10, p.o., 4 h after administration

Sequence of recombinant BACE1 protein (P56817 46-501): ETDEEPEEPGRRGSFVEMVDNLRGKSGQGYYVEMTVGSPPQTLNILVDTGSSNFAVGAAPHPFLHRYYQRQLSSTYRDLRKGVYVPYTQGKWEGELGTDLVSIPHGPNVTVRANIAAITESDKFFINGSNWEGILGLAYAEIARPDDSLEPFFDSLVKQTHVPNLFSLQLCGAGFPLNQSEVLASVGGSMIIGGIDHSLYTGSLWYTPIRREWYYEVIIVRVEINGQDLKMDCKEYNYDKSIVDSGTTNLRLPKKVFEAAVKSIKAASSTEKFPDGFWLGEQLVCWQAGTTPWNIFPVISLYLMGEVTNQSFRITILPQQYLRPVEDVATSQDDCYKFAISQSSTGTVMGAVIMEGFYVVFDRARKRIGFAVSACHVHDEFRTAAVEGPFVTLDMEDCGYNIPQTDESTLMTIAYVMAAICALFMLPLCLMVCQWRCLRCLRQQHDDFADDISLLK
Sequence of recombinant BACE2 protein (Q9Y5Z0 63-518): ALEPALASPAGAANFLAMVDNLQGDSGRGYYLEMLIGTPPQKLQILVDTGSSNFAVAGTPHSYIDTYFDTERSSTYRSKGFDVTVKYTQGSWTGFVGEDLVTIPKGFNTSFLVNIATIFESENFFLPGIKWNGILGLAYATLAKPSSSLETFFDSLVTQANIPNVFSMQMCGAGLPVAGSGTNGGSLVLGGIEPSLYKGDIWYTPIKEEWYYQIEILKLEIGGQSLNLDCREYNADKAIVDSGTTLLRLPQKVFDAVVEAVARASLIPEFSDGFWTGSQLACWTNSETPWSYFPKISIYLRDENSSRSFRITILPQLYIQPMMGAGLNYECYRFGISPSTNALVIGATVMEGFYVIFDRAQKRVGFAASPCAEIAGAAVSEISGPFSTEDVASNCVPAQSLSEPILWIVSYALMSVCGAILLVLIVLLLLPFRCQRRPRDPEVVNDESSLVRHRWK

| Structure (SMILES) | IC50 [2] [nM] | IC50 [3] [nM] | BACE1 Biochemical FRET based assay - Method 2 pIC50 [1] | BACE2 Biochemical FRET based assay pIC50 [4] | also measured |
| --- | --- | --- | --- | --- | --- |
| C[C@@]1(c2cc(NC(=O)c3ccc(C#N)cn3)ccc2F)Cn2nncc2C(N)=N1 [Compound 2, N-{3-[(6R)-4-Amino-6-methyl-6,7-dihydro[1,2,3]triazolo[1,5-a]pyrazin-6-yl]-4-fluorophenyl}-5-cyanopyridine-2-carboxamide] | 1.1 | 1.05 | – | – | Aβ40 (% vs Ctrl)_Mean [5, 6]: 44 % vs Ctrl; Aβ42 (% vs Ctrl)_Mean [5, 6]: 44 % vs Ctrl; Aβ40 (% vs Ctrl)_Mean [5, 7]: 61 % vs Ctrl; Aβ42 (% vs Ctrl)_Mean [5, 7]: 50 % vs Ctrl |
| C[C@@]1(c2cc(NC(=O)c3nn(C(F)F)cc3Cl)ccc2F)Cn2nncc2C(N)=N1 [Compound 5, N-{3-[(6R)-4-Amino-6-methyl-6,7-dihydro[1,2,3]triazolo[1,5-a]pyrazin-6-yl]-4-fluorophenyl}-4-chloro-1-(difluoromethyl)-1H-pyrazole-3-carboxamide] | 3.72 | 3.09 | 8.72 | 8.73 | – |
| C[C@@]1(c2cc(NC(=O)c3cnc(OCC(F)(F)F)cn3)ccc2F)Cn2nncc2C(N)=N1 [Compound 6, N-{3-[(6R)-4-amino-6-methyl-6,7-dihydro[1,2,3]triazolo[1,5-a]pyrazin-6-yl]-4-fluoropheny}-5-(2,2,2-trifluoroethoxy)pyrazine-2-carboxamide] | – | – | 8.51 | 7.22 | Cellular αLisa assay in SKNBE2 cells Abeta 42 pIC50 [2]: 8.28; Cellular αLisa assay in SKNBE2 cells Abetatotal pIC50 [3]: 8.32 |
| C[C@@]1(c2cc(NC(=O)c3cnc(OCF)cn3)ccc2F)Cn2nncc2C(N)=N1 [Compound 7, N-{3-[(6R)-4-amino-6-methyl-6,7-dihydro[1,2,3]triazolo[1,5-a]pyrazin-6-yl]-4-fluoropheny}-5-(fluoromethoxy)pyrazine-2-carboxamide] | – | – | 8.52 | 7.78 | Cellular αLisa assay in SKNBE2 cells Abeta 42 pIC50 [2]: 8.87; Cellular αLisa assay in SKNBE2 cells Abetatotal pIC50 [3]: 8.86 |

Further lines, with some results ahead:

| IC50 [2] [nM] | IC50 [3] [nM] | BACE1 Biochemical FRET based assay - Method 2 pIC50 [1] | BACE2 Biochemical FRET based assay pIC50 [4] | Structure (SMILES) | also measured |
| --- | --- | --- | --- | --- | --- |
| 57.5 | 56.2 | – | – | NC1=NC(CF)(c2cc(NC(=O)c3ccc(F)cn3)ccc2F)Cn2nncc21 (racemic) [Compound 9, (rac)-N-{3-[4-amino-6-(fluoromethyl)-6,7-dihydro[1,2,3]triazolo[1,5-a]pyrazin-6-yl]-4-fluorophenyl}-5-fluoropyridine-2-carboxamide] | IC50 ([1]; read-out: BACE1 Biochemical FRET based assay - Method 2 pIC50 (converted)): 8.32 nM; IC50 ([4]; read-out: BACE2 Biochemical FRET based assay pIC50 (converted)): 8.32 nM |
| 4.68 | 4.47 | 8.36 | – | C[C@@]1(c2cc(NC(=O)c3ccc(F)cn3)cc(F)c2F)Cn2nncc2C(N)=N1 [Compound 8, N-{3-[(6R)-4-Amino-6-methyl-6,7-dihydro[1,2,3]triazolo[1,5-a]pyrazin-6-yl]-4,5-difluorophenyl}-5-fluoropyridine-2-carboxamide] | Aβ40 (% vs Ctrl)_Mean [5, 6]: 56 % vs Ctrl; Aβ42 (% vs Ctrl)_Mean [5, 6]: 56 % vs Ctrl; Aβ40 (% vs Ctrl)_Mean [5, 7]: 136 % vs Ctrl; Aβ42 (% vs Ctrl)_Mean [5, 7]: 105 % vs Ctrl |
| 24.5 | 24.5 | 8.39 | 8.49 | NC1=N[C@](CF)(c2cc(NC(=O)c3ccc(F)cn3)ccc2F)Cn2nncc21 [Compound 10, N-{3-[(6R)-4-amino-6-(fluoromethyl)-6,7-dihydro[1,2,3]triazolo[1,5-a]pyrazin-6-yl]-4-fluorophenyl}-5-fluoropyridine-2-carboxamide] | Aβ40 (% vs Ctrl)_Mean [5, 8]: 95 % vs Ctrl; Aβ42 (% vs Ctrl)_Mean [5, 8]: 79 % vs Ctrl; Aβ40 (% vs Ctrl)_Mean [5, 9]: 116 % vs Ctrl; Aβ42 (% vs Ctrl)_Mean [5, 9]: 87 % vs Ctrl |
| 4170 | 4470 | 6.12 | 6.3 | NC1=N[C@@](CF)(c2cc(NC(=O)c3ccc(F)cn3)ccc2F)Cn2nncc21 [Compound 11, N-{3-[(6S)-4-amino-6-(fluoromethyl)-6,7-dihydro[1,2,3]triazolo[1,5-a]pyrazin-6-yl]-4-fluorophenyl}-5-fluoropyridine-2-carboxamide] | – |
